Laboratory results: patent publication US4294849A, “Prostaglandin analogues” (Warner-Lambert Company, priority 1979, dated 1981)

What was measured:
[1] = test system: blood platelet aggregation; test: inhibitory activity on adenosine diphosphate-induced blood platelet aggregation in platelet-rich plasma of humans; assay type: cell-based, human; details: for Inhibitory Activity on Blood Platelet Aggregation Human, relative to PGE1 taken as 1: relative to PGE1 = 1; for inhibitory activity on adenosine diphosphate-induced blood platelet aggregation, times as potent as PGE1: human platelet-rich plasma, vs PGE1
isolated rabbit hearts = test: coronary vasodilator activity on isolated rabbit hearts; details: for Vasodilator Activity Rabbit, relative to PGE1 taken as 1: relative to PGE1 = 1; for coronary vasodilator activity, times as potent as PGE1: isolated rabbit hearts, vs PGE1
dogs = test: hypotensive activity, intravenous administration to allobarbital-anaesthetised dogs; assay type: in vivo, dog; details: for Hypotensive Activity Dog (i.v.), relative to PGE1 taken as 1: relative to PGE1 = 1; for useful activities (hypotensive, blood platelet aggregation inhibitory, vasodilator): in words, summary of the Table; for hypotensive activity, times as potent as PGE1: intravenous, allobarbital-anaesthetised dogs, vs PGE1
[2] = test system: spontaneously hypertensive rats; test: hypotensive activity, oral administration to conscious spontaneously hypertensive rats; assay type: in vivo, rat; details: for Hypotensive Activity Rat (p.o.), relative to PGE1 taken as 1: relative to PGE1 = 1; for hypotensive activity, times as potent as PGE1: oral, conscious spontaneously hypertensive rats, vs PGE1
Excerpt: In the Table, all the activities are indicated relative to the activity of PGE1, taken as 1.

mice = details: mouse, in vivo; for Diarrhoea-inducing Activity Mice (p.o.), relative to PGE1 taken as 1 / diarrhoea-inducing activity compared with PGE1: po
[3] = test system: blood platelet aggregation; test: inhibitory activity on adenosine diphosphate-induced blood platelet aggregation in platelet-rich plasma of rats; assay type: cell-based, rat; details: for Inhibitory Activity on Blood Platelet Aggregation Rat, relative to PGE1 taken as 1: relative to PGE1 = 1; for inhibitory activity on adenosine diphosphate-induced blood platelet aggregation, times as potent as PGE1: rat platelet-rich plasma, vs PGE1
[4] = acute toxicity tests, intravenous or oral administration to mice; details: mouse, in vivo
Protocol: Acute toxicity tests on the compounds of the present invention were conducted by administering them intravenously or orally to mice.

| Diarrhoea-inducing Activity Mice (p.o.), relative to PGE1 taken as 1 (mice) | SMILES | Inhibitory Activity on Blood Platelet Aggregation Human, relative to PGE1 taken as 1 [1] | Vasodilator Activity Rabbit, relative to PGE1 taken as 1 (isolated rabbit hearts) | Hypotensive Activity Dog (i.v.), relative to PGE1 taken as 1 (dogs) | Hypotensive Activity Rat (p.o.), relative to PGE1 taken as 1 [2] | Inhibitory Activity on Blood Platelet Aggregation Rat, relative to PGE1 taken as 1 [3] | useful activities (hypotensive, blood platelet aggregation inhibitory, vasodilator) (dogs) | hypotensive activity, times as potent as PGE1 (dogs) [times] | hypotensive activity, times as potent as PGE1 [2] [times] | diarrhoea-inducing (side-effect) activity compared with the known compounds (mice) | diarrhoea-inducing activity compared with PGE1 (mice) | inhibitory activity on adenosine diphosphate-induced blood platelet aggregation, times as potent as PGE1 [1] [times] | coronary vasodilator activity, times as potent as PGE1 (isolated rabbit hearts) [times] | inhibitory activity on adenosine diphosphate-induced blood platelet aggregation, times as potent as PGE1 [3] [times] | LD50 ([4]; intravenous administration) [mg/kg] | LD50 ([4]; oral administration) [mg/kg] |
| --- | --- | --- | --- | --- | --- | --- | --- | --- | --- | --- | --- | --- | --- | --- | --- | --- |
| 3.2 | CCCCCC(CC)C[C@H](O)/C=C/[C@H]1[C@H](O)CC(=O)[C@@H]1CCCC/C=C/C(=O)O (stereo partly drawn) [D, 9-oxo-11α,15α-dihydroxy-17,20-diethylprosta-trans-2,trans-13-dienoic acid, reference compound] | 2.4 | < 0.1 | 1.45 | 30-100 | 1.4 |  |  |  |  |  |  |  |  |  |  |
| 11.9 | CC(c1ccccc1)[C@H](O)/C=C/[C@H]1[C@H](O)CC(=O)[C@@H]1CCCC/C=C/C(=O)O (stereo partly drawn) [C, 9-oxo-11α,15α-dihydroxy-16-phenyl-18,19,20-trinorprosta-trans-2,trans-13-dienoic acid, reference compound] |  | 0.3 | 39.0 |  |  |  |  |  |  |  |  |  |  |  |  |
| < 1 | CCCC(CC)C[C@H](O)/C=C/[C@H]1[C@H](O)CC(=O)[C@@H]1CCCC/C=C/C(=O)O (stereo partly drawn) [B, 9-oxo-11α,15α-dihydroxy-17-ethylprosta-trans-2,trans-13-dienoic acid, reference compound] | 22.1 | 1.0 | 1.5 | 10 | 14.5 |  |  |  |  |  |  |  |  |  |  |
| < 1 | CCCC[C@H](C)C[C@H](O)/C=C/[C@H]1[C@H](O)CC(=O)[C@@H]1CCCC/C=C/C(=O)OC [H, methyl 9-oxo-11α,15α-dihydroxy-17S,20-dimethylprosta-trans-2,trans-13-dienoate] |  |  | 5.0 | 100 |  | extremely strong | 5 | 100 | weaker | lower diarrhoea-inducing activity than PGE1 |  |  |  |  |  |
| < 1 | CCCC[C@@H](C)C[C@H](O)/C=C/[C@H]1[C@H](O)CC(=O)[C@@H]1CCCC/C=C/C(=O)O [G, 9-oxo-11α,15α-dihydroxy-17R,20-dimethylprosta-trans-2,trans-13-dienoic acid] | 48.1 | 14.0 | 3.5 |  | 70.5 | extremely strong | 3.5 |  | weaker | lower diarrhoea-inducing activity than PGE1 | 48.1 | 14.0 | 70.5 |  |  |
| 270.6 | CCCC[C@@H](C)[C@H](O)/C=C/[C@H]1[C@H](O)CC(=O)[C@@H]1CCCC/C=C/C(=O)O [A, 9-oxo-11α,15α-dihydroxy-16R-methylprosta-trans-2,trans-13-dienoic acid, reference compound] | 1.6 | 2-3 | 9.5 |  | 2.84 |  |  |  |  |  |  |  |  |  |  |
| 1.7 | CCCCCC(CC)C[C@H](O)/C=C/[C@H]1[C@H](O)CC(=O)[C@@H]1CCCC/C=C/C(=O)OC (stereo partly drawn) [E, methyl 9-oxo-11α,15α-dihydroxy-17,20-diethylprosta-trans-2,trans-13-dienoate, reference compound] | 0.14 | 0.1 | 0.88 | 10 | 2.2 |  |  |  |  |  |  |  |  |  |  |

| SMILES | Diarrhoea-inducing Activity Mice (p.o.), relative to PGE1 taken as 1 (mice) | Inhibitory Activity on Blood Platelet Aggregation Human, relative to PGE1 taken as 1 [1] | Vasodilator Activity Rabbit, relative to PGE1 taken as 1 (isolated rabbit hearts) | Hypotensive Activity Dog (i.v.), relative to PGE1 taken as 1 (dogs) | Hypotensive Activity Rat (p.o.), relative to PGE1 taken as 1 [2] | Inhibitory Activity on Blood Platelet Aggregation Rat, relative to PGE1 taken as 1 [3] | useful activities (hypotensive, blood platelet aggregation inhibitory, vasodilator) (dogs) | hypotensive activity, times as potent as PGE1 (dogs) [times] | hypotensive activity, times as potent as PGE1 [2] [times] | diarrhoea-inducing (side-effect) activity compared with the known compounds (mice) | diarrhoea-inducing activity compared with PGE1 (mice) | inhibitory activity on adenosine diphosphate-induced blood platelet aggregation, times as potent as PGE1 [1] [times] | coronary vasodilator activity, times as potent as PGE1 (isolated rabbit hearts) [times] | inhibitory activity on adenosine diphosphate-induced blood platelet aggregation, times as potent as PGE1 [3] [times] | LD50 ([4]; intravenous administration) [mg/kg] | LD50 ([4]; oral administration) [mg/kg] |
| --- | --- | --- | --- | --- | --- | --- | --- | --- | --- | --- | --- | --- | --- | --- | --- | --- |
| CCCC[C@H](C)C[C@H](O)/C=C/[C@H]1[C@H](O)CC(=O)[C@@H]1CCCC/C=C/C(=O)O [F, 9-oxo-11α,15α-dihydroxy-17S,20-dimethylprosta-trans-2,trans-13-dienoic acid] | < 1 | 38.5 | 19.0 | 10.0 | 100 | 81.6 | extremely strong | 10 | 100 | weaker | lower diarrhoea-inducing activity than PGE1 | 38.5 | 19.0 | 81.6 | ~12 | ~50 |
